Data on two molecules can be found in article PMC12154549, “Structure-based design of an aromatic helical foldamer–protein interface” (Chemical Science, 2025).

Where two headings read alike, the source gives them in different places.

Assay [1] deals with T1, HCAII (Homo sapiens, UniProt P00918).
T1 construct: made in house
The assay is described as follows: Fluorescence competition assay: HCAII titrated into foldamer or ligand plus probe 23. Particulars: [competing species] = [23] = 50 nM; 50 mM HEPES pH 7.2; 1:1 binding isotherm, 380-600 nm; repeatable within ±15%. From the text: We turned to a recently published assay that exploits the quenching of the fluorescence of nanomolar ligand 23 upon binding to HCAII (Fig. 8a).[32] The low KD value of 23 makes it suitable to perform competition (displacement) assays with compounds binding in the same concentration range. However, some optimization of the assay was required to perform experiments with foldamer-containing ligands because the foldamers absorb both at the excitation (373 nm) and emission (400–450 nm) wavelengths of 23. Performing classical direct displacement titrations where a foldamer is added to a solution containing 23 and HCAII would be complicated by variable inner filter effects. […] For fluorescence measurements: 50 mM HEPES (4-(2-hydroxyethyl)-1-piperazineethanesulfonic acid) at pH 7.2. […] It appears that the fluorescence drops upon adding HCAII, i.e. that ligand 23 binds to HCAII, in presence of the foldamer faster than predicted by the binding model. A better fit can be artificially obtained by inputting HCAII concentrations 20% larger than those measured or foldamer concentrations 20% lower than those measured in the curve fitting program. […]
4.2 Fluorescence binding assay […]
2. To the solution of 23 (50 nM) in HEPES buffer (50 mM, pH 7.2) in the fluorescence cuvette (2 mL), incremental volumes of a stock solution of HCAII (11 µM) in HEPES buffer were added. […]

The target of assay [2] is T1, HCAII. Also noted: method as in PMID 30395443. The note with it: HCAII immobilized; 2:98 DMSO/PBS pH 7.4, 25 °C; ref 8a; read-out: KD by SPR; cited from earlier work. In general terms: In SPR one partner is held on a chip, and binding of the other changes the refractive index at the surface.
Assay [3] concerns the target T1, HCAII. The assay is described as follows: Direct fluorescence titration of probe 23 with HCAII. In kind it is binding. Particulars: 23 50 nM, 50 mM HEPES pH 7.2, RT, 1:1 model; read-out: KD of 23·HCAII complex. How it is done:
4.2 Fluorescence binding assay
This fluorescence assay was adapted from the paper of Anzenbacher.18 All fluorescence titrations were done in aqueous 50 mM HEPES buffer (pH = 7.2) at room temperature , without degassing of the samples and using a qua rtz fluorescence cuvette with 1 cm path length on Varian Cary Eclipse Spectrophotometer 05813. The titration assays were carried out in two parts: 1) sensor - protein titration (Figure S21); 2) sensor-foldamer competition assay (Figure S24). Several experiments were repeated and validated a reproducibility within 15% error.
Figure S21. Schematic procedure of the titration experiment between indicator 23 and HCAII (adapted from literature18).
4.2.1 KD measurement of the 23•HCAII complex
1. […]
2. To the solution of 23 (50 nM) in HEPES buffer (50 mM, pH 7.2) in the fluorescence cuvette (2 mL), incremental volumes of a stock solution of HCAII (11 µM) in HEPES buffer were added.
After each addition and gentle agitation, the resulting mixture was incubated for 5 min at RT. The intensity of fluorescence (IF) was then recorded from 380 nm to 600 nm (λex = 373 nm).   […]
software.19 For curve fitting, the binding model was set to 1:1. The spectra of all emitting species were recorded from 380 nm to 600 nm (λex = 373 nm) in separate experiments and set as “unknown spectrum”. The KD value was determined considering all the wavelengths recorded. […]

What is called Kd is the free concentration of one partner at which half of the binding sites on the other are occupied at equilibrium, for simple one-to-one binding. Regarding `NCCCCOc1cccc(CNC(=O)c2ccc(S(N)(=O)=O)cc2)c1` [ligand 22], the Kd in assay [1] was 10 nM; in assay [2], 5 nM.
With `COc1ccc2cc(C(=O)Nc3nnc(S(N)(=O)=O)s3)c(=O)oc2c1` [probe 23], in assay [3], the equilibrium dissociation constant (Kd) worked out at 1.69 nM.
